The values that follow are results of earlier work, collected in patent US20190105268A1, “Viscoelastic Gel of Liraglutide Adapted for Once-Weekly or Once Bi-Weekly Administration” (Sun Pharma Advanced Research Company Limited, priority 2016, published 2019).

As to liraglutide, for the setting “DMSO”, the “solubility in DMSO” value is recorded as “slightly soluble”. For the same substance, the solubility in ethanol (ethanol) is 1100 µg/mL. Where the note is “methanol”, the solubility in methanol result was “up to 68 mg/ml”. In addition, the solubility in water result (water) is “insoluble to slightly soluble”.
